Results taken from paper PMC6321168, “Comparative Study on Excretive Characterization of Main Components in Herb Pair Notoginseng-Safflower and Single Herbs by LC–MS/MS” (Pharmaceutics, 2018).

Experiment: Urinary excretion study in rats after oral NS, SF or CNS (LC–MS/MS)
Format: in vivo
Settings: for concentration at 2 h / concentration at 4 h / concentration at 8 h / concentration at 12 h / concentration at 24 h / concentration at 36 h / concentration at 48 h / concentration at 72 h / concentration at 96 h / concentration at 120 h / concentration at 6 h: male, Sprague Dawley, rat, urine, oral; for Accumulative excretion amount / Accumulative excretion percentage / Excretion amount: rat urine
Description: The animal room was set at constant temperature of 20 ± 2 °C with humidity of 50 ± 20% and 12/12 h light/dark cycle.
Eighteen male rats were fasted for 12 h before starting the experiment. The rats were divided into three groups at random (n = 6) and received NS (60 mg/kg), SF (50 mg/kg), and NS (60 mg/kg) + SF (50 mg/kg), respectively, by oral gavage. The rats were placed in separate metabolic cages. The urine samples were collected at 0–2, 2–4, 4–6, 6–8, 8–12, 12–24, 24–36, 36–48, 48–72, 72–96, and 96–120 h. The feces samples were collected at 0–4, 4–8, 8–12, 12–24, 24–36, 36–48, 48–72, 72–96, and 96–120 h. The urine volume was recorded and the dry feces were measured for each collection period. Samples were stored at −80 °C until analysis.
An aliquot of 200 μL urine sample was mixed with 10 μL of IS and evaporated to dryness with a ZLS-2 vacuum centrifugal concentrator (Herexi Co., Ltd., Changsha, Hunan, China). The residue was reconstituted in 100 μL of 50% methanol vortexed for 2 min and centrifuged at 12,000 rpm for 15 min. Finally, a 1 μL aliquot was injected for LC–MS analysis.
Ultra fast liquid chromatography (UFLC) analysis was performed using a Shimadzu UFLC system (DGU-20A3R Degasser; LC-20AD pump; SIL-20AXR Autosampler; CTO-20AC Column Oven) (Nakagyo-Ku, Koyoto, Japan). […] Because of the different endogenous substances in the urine and feces samples, different elution gradients were used to alleviate the matrix effects for the analytes.
The mass spectrometric detection was performed on an ABSciex 4500 Qtrap mass spectrometer (ABSciex, Foster City, CA, USA) equipped with a negative electrospray ionization (ESI) interface using multiple reaction monitoring (MRM). The MS parameters were optimized under the selected ion monitoring conditions as follows: curtain gas, 35 psi; ionspray voltage, 4500 V; turbo gas temperature, 450 °C; GS1, 45 psi; GS2, 45 psi. All data were acquired and analyzed by Analyst software (Versions 1.6.2) from ABSciex.
The accumulative excretion percentage was calculated for each analyte as follows. Excretion at time (t) = [concentration of the analyte (ng/mL) at t] × total urine (or feces) volume (mL) at t. The cumulative excretion up to time t (mg) was expressed as a percent (%) cumulative excretion by dividing by the total amount of the analyte ingested (mg): % Cumulative Excretion = 100 × (Σt excretiont) total ingested.

CC(C)=CCC[C@](C)(O[C@@H]1O[C@H](CO)[C@@H](O)[C@H](O)[C@H]1O)[C@H]1CC[C@]2(C)[C@@H]1[C@H](O)C[C@@H]1[C@@]3(C)CC[C@H](O)C(C)(C)[C@@H]3[C@@H](O[C@@H]3O[C@H](CO)[C@@H](O)[C@H](O)[C@H]3O[C@@H]3O[C@@H](C)[C@H](O)[C@@H](O)[C@H]3O)C[C@]12C [ginsenoside Re]
concentration at 2 h (60 mg/kg, oral NS 60 mg/kg, 2 h): 289 ± 689 ng/mL | concentration at 4 h (60 mg/kg, oral NS 60 mg/kg, 4 h): 91 ± 119 ng/mL | concentration at 8 h (60 mg/kg, oral NS 60 mg/kg, 8 h): 40 ± 26 ng/mL | concentration at 12 h (60 mg/kg, oral NS 60 mg/kg, 12 h): 33 ± 24 ng/mL | concentration at 24 h (60 mg/kg, oral NS 60 mg/kg, 24 h): 17 ± 34 ng/mL | concentration at 36 h (60 mg/kg, oral NS 60 mg/kg, 36 h): 15 ± 23 ng/mL | concentration at 48 h (60 mg/kg, oral NS 60 mg/kg, 48 h): 13 ± 24 ng/mL | concentration at 72 h (60 mg/kg, oral NS 60 mg/kg, 72 h): 17 ± 37 ng/mL | concentration at 96 h (60 mg/kg, oral NS 60 mg/kg, 96 h): 7 ± 13 ng/mL | concentration at 120 h (60 mg/kg, oral NS 60 mg/kg, 120 h): 4 ± 8 ng/mL | concentration at 2 h (oral CNS 110 mg/kg, 2 h): 86 ± 88 ng/mL | concentration at 4 h (oral CNS 110 mg/kg, 4 h): 70 ± 89 ng/mL | concentration at 6 h (oral CNS 110 mg/kg, 6 h): 39 ± 27 ng/mL | concentration at 8 h (oral CNS 110 mg/kg, 8 h): 41 ± 35 ng/mL | concentration at 12 h (oral CNS 110 mg/kg, 12 h): 35 ± 41 ng/mL | concentration at 24 h (oral CNS 110 mg/kg, 24 h): 369 ± 963 ng/mL | concentration at 36 h (oral CNS 110 mg/kg, 36 h): 24 ± 38 ng/mL | concentration at 48 h (oral CNS 110 mg/kg, 48 h): 6 ± 7 ng/mL | concentration at 72 h (oral CNS 110 mg/kg, 72 h): 5 ± 7 ng/mL | concentration at 96 h (oral CNS 110 mg/kg, 96 h): 3 ± 5 ng/mL | concentration at 120 h (oral CNS 110 mg/kg, 120 h): 4 ± 8 ng/mL | concentration at 6 h (oral NS 60 mg/kg, 6 h): 32 ± 30 ng/mL | Accumulative excretion amount (oral CNS 110 mg/kg, 2 h): 0.133 ± 0.062 µg | Accumulative excretion percentage (oral CNS 110 mg/kg, 2 h): 0.028±0.013% | Accumulative excretion amount (oral CNS 110 mg/kg, 4 h): 0.193 ± 0.131 µg | Accumulative excretion percentage (oral CNS 110 mg/kg, 4 h): 0.041±0.028% | Excretion amount (oral CNS 110 mg/kg, 4 h): 0.100 ± 0.090 µg | Accumulative excretion amount (oral CNS 110 mg/kg, 6 h): 0.231 ± 0.118 µg | Accumulative excretion percentage (oral CNS 110 mg/kg, 6 h): 0.049± 0.025% | Excretion amount (oral CNS 110 mg/kg, 6 h): 0.064 ± 0.030 µg | Accumulative excretion amount (oral CNS 110 mg/kg, 8 h): 0.289 ± 0.121 µg | Accumulative excretion percentage (oral CNS 110 mg/kg, 8 h): 0.061±0.026% | Excretion amount (oral CNS 110 mg/kg, 8 h): 0.072 ± 0.033 µg | Accumulative excretion amount (oral CNS 110 mg/kg, 12 h): 0.324 ± 0.110 µg | Accumulative excretion percentage (oral CNS 110 mg/kg, 12 h): 0.069±0.023% | Excretion amount (oral CNS 110 mg/kg, 12 h): 0.035 ± 0.015 µg | Accumulative excretion amount (oral CNS 110 mg/kg, 24 h): 0.381 ± 0.153 µg | Accumulative excretion percentage (oral CNS 110 mg/kg, 24 h): 0.081±0.032% | Excretion amount (oral CNS 110 mg/kg, 24 h): 0.058 ± 0.054 µg | Accumulative excretion amount (oral CNS 110 mg/kg, 36 h): 0.411 ± 0.177 µg | Accumulative excretion percentage (oral CNS 110 mg/kg, 36 h): 0.087±0.037% | Excretion amount (oral CNS 110 mg/kg, 36 h): 0.030 ± 0.037 µg | Accumulative excretion amount (oral CNS 110 mg/kg, 48 h): 0.447 ± 0.206 µg | Accumulative excretion percentage (oral CNS 110 mg/kg, 48 h): 0.095±0.044% | Excretion amount (oral CNS 110 mg/kg, 48 h): 0.03 ± 0.038 µg | Accumulative excretion amount (oral CNS 110 mg/kg, 72 h): 0.460 ± 0.207 µg | Accumulative excretion percentage (oral CNS 110 mg/kg, 72 h): 0.097±0.044% | Excretion amount (oral CNS 110 mg/kg, 72 h): 0.013 ± 0.017 µg | Accumulative excretion amount (oral CNS 110 mg/kg, 96 h): 0.468 ± 0.217 µg | Accumulative excretion percentage (oral CNS 110 mg/kg, 96 h): 0.099±0.046% | Excretion amount (oral CNS 110 mg/kg, 96 h): 0.008 ± 0.012 µg | Accumulative excretion amount (oral CNS 110 mg/kg, 120 h): 0.472 ± 0.219 µg | Accumulative excretion percentage (oral CNS 110 mg/kg, 120 h): 0.100±0.046% | Excretion amount (oral CNS 110 mg/kg, 120 h): 0.004 ± 0.005 µg | Accumulative excretion amount (oral NS 60 mg/kg, 2 h): 0.304 ± 0.161 µg | Accumulative excretion percentage (oral NS 60 mg/kg, 2 h): 0.064±0.030% | Excretion amount (oral NS 60 mg/kg, 2 h): 0.304 ± 0.161 µg | Accumulative excretion amount (oral NS 60 mg/kg, 4 h): 0.390 ± 0.199 µg | Accumulative excretion percentage (oral NS 60 mg/kg, 4 h): 0.072±0.037% | Excretion amount (oral NS 60 mg/kg, 4 h): 0.129 ± 0.051 µg | Accumulative excretion amount (oral NS 60 mg/kg, 6 h): 0.509 ± 0.225 µg | Accumulative excretion percentage (oral NS 60 mg/kg, 6 h): 0.096±0.042% | Excretion amount (oral NS 60 mg/kg, 6 h): 0.143 ± 0.125 µg | Accumulative excretion amount (oral NS 60 mg/kg, 8 h): 0.625 ± 0.321 µg | Accumulative excretion percentage (oral NS 60 mg/kg, 8 h): 0.127±0.059% | Excretion amount (oral NS 60 mg/kg, 8 h): 0.173 ± 0.121 µg | Accumulative excretion amount (oral NS 60 mg/kg, 12 h): 0.721 ± 0.406 µg | Accumulative excretion percentage (oral NS 60 mg/kg, 12 h): 0.138±0.075% | Excretion amount (oral NS 60 mg/kg, 12 h): 0.096 ± 0.087 µg | Accumulative excretion amount (oral NS 60 mg/kg, 24 h): 0.745 ± 0.403 µg | Accumulative excretion percentage (oral NS 60 mg/kg, 24 h): 0.149±0.074% | Excretion amount (oral NS 60 mg/kg, 24 h): 0.024 ± 0.015 µg | Accumulative excretion amount (oral NS 60 mg/kg, 36 h): 0.782 ± 0.377 µg | Accumulative excretion percentage (oral NS 60 mg/kg, 36 h): 0.141±0.070% | Excretion amount (oral NS 60 mg/kg, 36 h): 0.044 ± 0.046 µg | Accumulative excretion amount (oral NS 60 mg/kg, 48 h): 0.802 ± 0.380 µg | Accumulative excretion percentage (oral NS 60 mg/kg, 48 h): 0.152±0.070% | Excretion amount (oral NS 60 mg/kg, 48 h): 0.020 ± 0.022 µg | Accumulative excretion amount (oral NS 60 mg/kg, 72 h): 0.809 ± 0.391 µg | Accumulative excretion percentage (oral NS 60 mg/kg, 72 h): 0.156±0.072% | Excretion amount (oral NS 60 mg/kg, 72 h): 0.007 ± 0.017 µg | Accumulative excretion amount (oral NS 60 mg/kg, 96 h): 0.814 ± 0.399 µg | Accumulative excretion percentage (oral NS 60 mg/kg, 96 h): 0.154±0.074% | Excretion amount (oral NS 60 mg/kg, 96 h): 0.005 ± 0.010 µg | Accumulative excretion amount (oral NS 60 mg/kg, 120 h): 0.819 ± 0.408 µg | Accumulative excretion percentage (oral NS 60 mg/kg, 120 h): 0.154±0.075% | Excretion amount (oral NS 60 mg/kg, 120 h): 0.004 ± 0.010 µg
